In patent US20100249050A1, “[…] AND USE THEREOF” (SHANDONG UNIVERSITY, priority 2008, published 2010):

Tests used:
Conditions in all cases: for Inhibition rate of growth: 48-72 hrs
[1] = system: human lung cancer cell A-549; assay: Antitumor activity test (MTT reduction / SRB protein staining), growth inhibition of A-549; assay type: cell-based
Description: (§1) Screening method: methyl-thiazol-tettazolium (MTT) reduction method and sulforhodamine B (SRB) protein staining method.
(§2) Cell strains: human liver cancer cell HepG2, human lung cancer cell A-549, and breast cancer cell MDA-MB-435.

[2] = system: breast cancer cell MDA-MB-435; assay: Antitumor activity test (MTT reduction / SRB protein staining), growth inhibition of MDA-MB-435; assay type: cell-based, human
Description: as §1, §2

[3] = system: human liver cancer cell HepG2; assay: Antitumor activity test (MTT reduction / SRB protein staining), growth inhibition of HepG2; assay type: cell-based
Description: as §1, §2

CC(=Cc1csc(C)n1)C1CC2OC2CCCC(C)C(O)C(C)C(=O)C(C)(C)C(OC2OC(CO)C(O)C2O)CC(=O)O1 (centres unmarked) [epothilone glycoside A-1]
Inhibition grade (no / weak / strong effect) ([1]; A-549, at the concentration of 10^−6 M): weak inhibition
Inhibition rate of growth ([1]; A-549, concentration 10^−4 M): 90.6
Inhibition rate of growth ([1]; A-549, concentration 10^−5 M): 83.7
Inhibition rate of growth ([1]; A-549, concentration 10^−6 M): 72.0
Inhibition rate of growth ([1]; A-549, concentration 10^−7 M): 0
Inhibition rate of growth ([1]; A-549, concentration 10^−8 M): 0
IC50 ([2]; MDA-MB-435, 48-72 hrs): 2.07 µM
Inhibition grade (no / weak / strong effect) ([2]; MDA-MB-435, at the concentration of 10^−6 M): weak inhibition
Inhibition rate of growth ([2]; MDA-MB-435, concentration 1 μM): 18.9
Inhibition rate of growth ([2]; MDA-MB-435, concentration 2 μM): 55.0
Inhibition rate of growth ([2]; MDA-MB-435, concentration 4 μM): 76.1
Inhibition rate of growth ([2]; MDA-MB-435, concentration 8 μM): 84.6
Inhibition rate of growth ([2]; MDA-MB-435, concentration 10 μM): 98.2
IC50 ([3]; HepG2, 48-72 hrs): 0.07 µM
Inhibition grade (no / weak / strong effect) ([3]; HepG2, at the concentration of 10^−6 M): strong inhibition
Inhibition rate of growth ([3]; HepG2, concentration 10^−4 M): 100
Inhibition rate of growth ([3]; HepG2, concentration 10^−5 M): 99.9
Inhibition rate of growth ([3]; HepG2, concentration 10^−6 M): 93.3
Inhibition rate of growth ([3]; HepG2, concentration 10^−7 M): 41.5
Inhibition rate of growth ([3]; HepG2, concentration 10^−8 M): 15.7
